Measurements published in ChEMBL document CHEMBL5584212, “Characterization of the G-quadruplexes in the transthyretin gene and its role in silencing transthyretin mRNA transcription” (Bioorg Med Chem Lett, 2024).
Calls of active or inactive are those of the source. The calls are words filed in the database; no cut-off is given here.

Tests used:
HepG2 [1] = experiment: Downregulation of TTR mRNA expression in human HepG2 cells by RT-PCR analysis; format: functional, cell-based
Quadruplex DNA [2] = experiment: Stabilization of parallel TTRG3 G-quadruplex (unknown origin) by CD spectra analysis; format: nucleic-acid assay
Quadruplex DNA [3] = experiment: Binding affinity to TTRG3 G-quadruplex (unknown origin) assessed as increase in fluorescence intensity at 2 uM by fluorescence titration spectra analysis; format: nucleic-acid assay
Quadruplex DNA [4] = experiment: Binding affinity to TTRG3 G-quadruplex (unknown origin) assessed as increase in fluorescence by measuring red shift at 1 uM by UV-Visible spectrophotometric analysis; format: nucleic-acid assay
Quadruplex DNA [5] = experiment: Binding affinity to parallel TTRG1 G-quadruplex (unknown origin) assessed as formation of anti-parallel G-quadruplex formation in presence of 100 mM K+ by circular dichroism spectra analysis; format: nucleic-acid assay
HepG2 [6] = experiment: Cytotoxicity against human HepG2 cells at 50 uM by CCK-8 assay relative to control; format: toxicity, cell-based; conditions: hepg2, 50 µM
Quadruplex DNA [7] = experiment: Binding affinity to TTRG3 G-quadruplex (unknown origin) assessed as hyperchromic shift by measuring increase in absorbance intensity at 1 uM by UV-Visible spectrophotometric analysis; format: nucleic-acid assay
HepG2 [8] = experiment: Induction of apoptosis in human HepG2 cells at 20 uM incubated for 48 hrs by calcein-AM/PI staining based analysis; format: functional, cell-based
Quadruplex DNA [9] = experiment: Stabilization of TTRG3 G-quadruplex (unknown origin) assessed as melting temperature in presence of K+ by circular dichroism analysis; format: nucleic-acid assay
Quadruplex DNA [10] = experiment: Binding affinity to parallel TTRG1 G-quadruplex (unknown origin) assessed as formation of anti-parallel G-quadruplex formation in presence of 1 mM K+ by circular dichroism spectra analysis; format: nucleic-acid assay
Quadruplex DNA [11] = experiment: Binding affinity to parallel TTRG3 G-quadruplex (unknown origin) assessed as formation of anti-parallel G-quadruplex formation in presence of 100 mM K+ by circular dichroism spectra analysis; format: nucleic-acid assay
Quadruplex DNA [12] = experiment: Stabilization of TTRG3 G-quadruplex (unknown origin) assessed as change in melting temperature in presence of K+ by circular dichroism analysis; format: nucleic-acid assay
Quadruplex DNA [13] = experiment: Binding affinity to TTRG3 G-quadruplex (unknown origin) assessed as dissociation constant by fluorescence spectroscopy; format: nucleic-acid assay

| SMILES | Activity (HepG2 [1]) | Activity (Quadruplex DNA [2]) | Activity (Quadruplex DNA [3]) | Activity (Quadruplex DNA [4]) | Activity (Quadruplex DNA [5]) | Activity (HepG2 [6]) [%] | Activity (Quadruplex DNA [7]) | Activity (HepG2 [8]) | Tm (Quadruplex DNA [9]) [°C] | Activity (Quadruplex DNA [10]) | Activity (Quadruplex DNA [11]) | ΔTm (Quadruplex DNA [12]) [°C] | Kd (Quadruplex DNA [13]) [µM] |
| --- | --- | --- | --- | --- | --- | --- | --- | --- | --- | --- | --- | --- | --- |
| CN(C)c1ccc(Nc2c3ccc(NC(=O)CCN4CCCC4)cc3nc3cc(NC(=O)CCN4CCCC4)ccc23)cc1 | Dose-Dependent Effect | Active | inactive | inactive | inactive | 85 | inactive | inactive | 54.8 | Active | inactive | 6.9 | – |
| CN1/C(=C/c2cc[n+](C)c3ccccc23)Sc2ccccc21.Cc1ccc(S(=O)(=O)[O-])cc1 | – | Active | Active | Active | inactive | 85 | Active | inactive | 53.3 | Active | inactive | 5.4 | 0.167 |
| CCC1=C(C)c2cc3[nH]c(cc4nc(cc5c(CC)c(C)c(cc1n2)n5C)C(C)=C4CCC(=O)O)c(CCC(=O)O)c3C | – | Active | Active | Active | inactive | 85 | Active | inactive | 64 | Active | inactive | 16.1 | 0.0053 |
| C[n+]1ccc(-c2c3nc(c(-c4cc[n+](C)cc4)c4ccc([nH]4)c(-c4cc[n+](C)cc4)c4ccc([nH]4)c(-c4cc[n+](C)cc4)c4nc2C=C4)C=C3)cc1 | Dose-Dependent Effect | Active | inactive | Active | inactive | – | Active | inactive | 69.4 | Active | inactive | 21.5 | – |
| C[n+]1ccc(-c2c3nc(c(-c4cc[n+](C)cc4)c4ccc([nH]4)c(-c4cc[n+](C)cc4)c4nc(c(-c5cc[n+](C)cc5)c5ccc2[nH]5)C=C4)C=C3)cc1.Cc1ccc(S(=O)(=O)[O-])cc1.Cc1ccc(S(=O)(=O)[O-])cc1.Cc1ccc(S(=O)(=O)[O-])cc1.Cc1ccc(S(=O)(=O)[O-])cc1 | – | – | – | – | – | 85 | – | – | – | – | – | – | 0.148 |
